# Laboratory results reported in ChEMBL document CHEMBL1201862, “PubChem BioAssay data set” (2004).
#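 Values below derive from 48-hour exposures of cells grown in 96-well plates, with endpoints linearly interpolated between the two concentrations bracketing the appropriate inhibition level. Here, GI50 denotes the concentration required for 50% inhibition of growth.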 Activity calls are given as the source filed them. No stated cut-off is given here; in the data, active = GI50 up to about 1.1 µM and inactive = higher.
# Tests used:
# Assay in all cases: NCI tumour cell line growth inhibition, 48 h
# 786-0 = tested on: 786-0
# A498 = tested on: A498
# A549 = tested on: A549
# ACHN = tested on: ACHN
# BT-549 = tested on: BT-549
# CAKI-1 = tested on: CAKI-1
# CCRF-CEM = tested on: CCRF-CEM
# COLO 205 = tested on: COLO 205
# DU-145 = tested on: DU-145
# EKVX = tested on: EKVX
# HCT-116 = tested on: HCT-116
# HCT-15 = tested on: HCT-15
# HL-60 = tested on: HL-60
# HOP-62 = tested on: HOP-62
# HOP-92 = tested on: HOP-92
# HT-29 = tested on: HT-29
# Hs-578T = tested on: Hs-578T
# IGROV-1 = tested on: IGROV-1
# K562 = tested on: K562
# KM12 = tested on: KM12
# LOX IMVI = tested on: LOX IMVI
# M14 = tested on: M14
# MDA-MB-231 = tested on: MDA-MB-231
# MDA-MB-435 = tested on: MDA-MB-435
# MDA-N = tested on: MDA-N
# MOLT-4 = tested on: MOLT-4
# Malme-3M = tested on: Malme-3M
# NCI-H226 = tested on: NCI-H226
# NCI-H23 = tested on: NCI-H23
# NCI-H460 = tested on: NCI-H460
# NCI-H522 = tested on: NCI-H522
# NCI/ADR-RES = tested on: NCI/ADR-RES
# OVCAR-3 = tested on: OVCAR-3
# OVCAR-5 = tested on: OVCAR-5
# OVCAR-8 = tested on: OVCAR-8
# PC-3 = tested on: PC-3
# RPMI-8226 = tested on: RPMI-8226
# RXF 393 = tested on: RXF 393
# SF-268 = tested on: SF-268
# SF-295 = tested on: SF-295
# SF-539 = tested on: SF-539
# SK-MEL-28 = tested on: SK-MEL-28
# SK-MEL-2 = tested on: SK-MEL-2
# SK-MEL-5 = tested on: SK-MEL-5
# SK-OV-3 = tested on: SK-OV-3
# SN12C = tested on: SN12C
# SNB-19 = tested on: SNB-19
# SNB-75 = tested on: SNB-75
# SW-620 = tested on: SW-620
# T47D = tested on: T47D
# TK-10 = tested on: TK-10
# U-251 = tested on: U-251
# UACC-257 = tested on: UACC-257
# UACC-62 = tested on: UACC-62
# UO-31 = tested on: UO-31
# HCC 2998 = tested on: HCC 2998
# MCF7 = tested on: MCF7
# OVCAR-4 = tested on: OVCAR-4
# SR = tested on: SR
structure (smiles),measurement,setting,value
CC1=NNC(=O)C1C1C(=O)NN=C(c2c[nH]c3ccccc23)C1Br (stereo not given),GI50,786-0,> 100 µM (inactive)
same,GI50,A498,> 100 µM (inactive)
same,GI50,A549,41.8 µM (inactive)
same,GI50,ACHN,42.3 µM (inactive)
same,GI50,BT-549,> 100 µM (inactive)
same,GI50,CAKI-1,62.4 µM (inactive)
same,GI50,CCRF-CEM,25.7 µM (inactive)
same,GI50,COLO 205,33.8 µM (inactive)
same,GI50,DU-145,> 100 µM (inactive)
same,GI50,EKVX,53.5 µM (inactive)
same,GI50,HCT-116,35.7 µM (inactive)
same,GI50,HCT-15,> 100 µM
same,GI50,HL-60,37.3 µM (inactive)
same,GI50,HOP-62,40.1 µM (inactive)
same,GI50,HOP-92,> 100 µM (inactive)
same,GI50,HT-29,35.3 µM (inactive)
same,GI50,Hs-578T,28 µM (inactive)
same,GI50,IGROV-1,1.09 µM (active)
same,GI50,K562,31.7 µM (inactive)
same,GI50,KM12,16.6 µM (inactive)
same,GI50,LOX IMVI,62.1 µM (inactive)
same,GI50,M14,23.2 µM (inactive)
same,GI50,MDA-MB-231,> 100 µM (inactive)
same,GI50,MDA-MB-435,48.6 µM (inactive)
same,GI50,MDA-N,59.8 µM (inactive)
same,GI50,MOLT-4,25.4 µM (inactive)
same,GI50,Malme-3M,30.3 µM (inactive)
same,GI50,NCI-H226,35 µM (inactive)
same,GI50,NCI-H23,74.5 µM (inactive)
same,GI50,NCI-H460,38.7 µM (inactive)
same,GI50,NCI-H522,16.4 µM (inactive)
same,GI50,NCI/ADR-RES,47.5 µM (inactive)
same,GI50,OVCAR-3,26.3 µM (inactive)
same,GI50,OVCAR-5,> 100 µM (inactive)
same,GI50,OVCAR-8,48.9 µM (inactive)
same,GI50,PC-3,25.5 µM (inactive)
same,GI50,RPMI-8226,40.7 µM (inactive)
same,GI50,RXF 393,> 100 µM (inactive)
same,GI50,SF-268,32.7 µM (inactive)
same,GI50,SF-295,17.7 µM (inactive)
same,GI50,SF-539,50.2 µM (inactive)
same,GI50,SK-MEL-28,69 µM (inactive)
same,GI50,SK-MEL-2,21.1 µM (inactive)
same,GI50,SK-MEL-5,37.8 µM (inactive)
same,GI50,SK-OV-3,57.4 µM (inactive)
same,GI50,SN12C,> 100 µM (inactive)
same,GI50,SNB-19,37.8 µM (inactive)
same,GI50,SNB-75,13.1 µM (inactive)
same,GI50,SW-620,40.6 µM (inactive)
same,GI50,T47D,42.1 µM (inactive)
same,GI50,TK-10,> 100 µM (inactive)
same,GI50,U-251,38.3 µM (inactive)
same,GI50,UACC-257,> 100 µM (inactive)
same,GI50,UACC-62,83.4 µM (inactive)
same,GI50,UO-31,48 µM (inactive)
C[N+](C)([O-])CCCNc1ccnc2cccc([N+](=O)[O-])c12,GI50,786-0,> 100 µM (inactive)
same,GI50,A498,51.3 µM (inactive)
same,GI50,A549,47.4 µM (inactive)
same,GI50,ACHN,33.1 µM (inactive)
same,GI50,BT-549,41.9 µM (inactive)
same,GI50,CAKI-1,44.1 µM (inactive)
same,GI50,CCRF-CEM,31.6 µM (inactive)
same,GI50,COLO 205,20.7 µM (inactive)
same,GI50,DU-145,20.9 µM (inactive)
same,GI50,EKVX,> 100 µM (inactive)
same,GI50,HCC 2998,27.3 µM (inactive)
same,GI50,HCT-116,28.4 µM (inactive)
same,GI50,HCT-15,24.2 µM
same,GI50,HL-60,20.2 µM (inactive)
same,GI50,HOP-62,83 µM (inactive)
same,GI50,HT-29,32.9 µM (inactive)
same,GI50,Hs-578T,21.1 µM (inactive)
same,GI50,IGROV-1,46 µM (inactive)
same,GI50,K562,38.5 µM (inactive)
same,GI50,KM12,33 µM (inactive)
same,GI50,LOX IMVI,28.2 µM (inactive)
same,GI50,M14,37.7 µM (inactive)
same,GI50,MCF7,27.4 µM (inactive)
same,GI50,MDA-MB-231,53.5 µM (inactive)
same,GI50,MDA-MB-435,46.2 µM (inactive)
same,GI50,MDA-N,30.6 µM (inactive)
same,GI50,MOLT-4,20.2 µM (inactive)
same,GI50,Malme-3M,28.1 µM (inactive)
same,GI50,NCI-H226,47.1 µM (inactive)
same,GI50,NCI-H23,34.6 µM (inactive)
same,GI50,NCI-H460,15.5 µM (inactive)
same,GI50,NCI-H522,14.2 µM (inactive)
same,GI50,OVCAR-3,20.7 µM (inactive)
same,GI50,OVCAR-4,20.5 µM (inactive)
same,GI50,OVCAR-5,> 100 µM (inactive)
same,GI50,OVCAR-8,81.3 µM (inactive)
same,GI50,PC-3,45.8 µM (inactive)
same,GI50,RPMI-8226,21.5 µM (inactive)
same,GI50,RXF 393,18.7 µM (inactive)
same,GI50,SF-268,27 µM (inactive)
same,GI50,SF-295,92.7 µM (inactive)
same,GI50,SF-539,22 µM (inactive)
same,GI50,SK-MEL-28,72.6 µM (inactive)
same,GI50,SK-MEL-2,19.8 µM (inactive)
same,GI50,SK-MEL-5,16.1 µM (inactive)
same,GI50,SK-OV-3,80.7 µM (inactive)
same,GI50,SN12C,47.1 µM (inactive)
same,GI50,SNB-19,> 100 µM (inactive)
same,GI50,SNB-75,39.2 µM (inactive)
same,GI50,SR,34.2 µM (inactive)
same,GI50,SW-620,31.1 µM (inactive)
same,GI50,T47D,40 µM (inactive)
same,GI50,TK-10,24.9 µM (inactive)
same,GI50,U-251,34.8 µM (inactive)
same,GI50,UACC-257,45.8 µM (inactive)
same,GI50,UACC-62,31.3 µM (inactive)
same,GI50,UO-31,46.5 µM (inactive)
CN(C)C(=O)C(NCCO)c1ccccc1 (stereo not given),GI50,786-0,> 100 µM (inactive)
same,GI50,A498,> 100 µM (inactive)
same,GI50,A549,> 100 µM (inactive)
same,GI50,ACHN,> 100 µM (inactive)
same,GI50,BT-549,> 100 µM (inactive)
same,GI50,CAKI-1,> 100 µM (inactive)
same,GI50,COLO 205,> 100 µM (inactive)
same,GI50,DU-145,> 100 µM (inactive)
same,GI50,EKVX,> 100 µM (inactive)
same,GI50,HCC 2998,> 100 µM (inactive)
same,GI50,HCT-116,53.7 µM (inactive)
same,GI50,HCT-15,> 100 µM
same,GI50,HOP-62,> 100 µM (inactive)
same,GI50,HOP-92,> 100 µM (inactive)
same,GI50,HT-29,57.7 µM (inactive)
same,GI50,Hs-578T,> 100 µM (inactive)
same,GI50,IGROV-1,72.6 µM (inactive)
same,GI50,KM12,85.7 µM (inactive)
same,GI50,LOX IMVI,> 100 µM (inactive)
same,GI50,M14,> 100 µM (inactive)
same,GI50,MCF7,> 100 µM (inactive)
same,GI50,MDA-MB-231,> 100 µM (inactive)
same,GI50,MDA-MB-435,79.4 µM (inactive)
same,GI50,MDA-N,> 100 µM (inactive)
same,GI50,MOLT-4,22.4 µM (inactive)
same,GI50,NCI-H226,> 100 µM (inactive)
same,GI50,NCI-H23,83 µM (inactive)
same,GI50,NCI-H460,> 100 µM (inactive)
same,GI50,NCI-H522,> 100 µM (inactive)
same,GI50,OVCAR-3,62.1 µM (inactive)
same,GI50,OVCAR-4,> 100 µM (inactive)
same,GI50,OVCAR-5,> 100 µM (inactive)
same,GI50,OVCAR-8,> 100 µM (inactive)
same,GI50,PC-3,89.1 µM (inactive)
same,GI50,RPMI-8226,27.9 µM (inactive)
same,GI50,RXF 393,> 100 µM (inactive)
same,GI50,SF-268,> 100 µM (inactive)
same,GI50,SF-295,> 100 µM (inactive)
same,GI50,SF-539,> 100 µM (inactive)
same,GI50,SK-MEL-28,> 100 µM (inactive)
same,GI50,SK-MEL-2,> 100 µM (inactive)
same,GI50,SK-MEL-5,52.8 µM (inactive)
same,GI50,SK-OV-3,> 100 µM (inactive)
same,GI50,SN12C,> 100 µM (inactive)
same,GI50,SNB-19,> 100 µM (inactive)
same,GI50,SNB-75,> 100 µM (inactive)
same,GI50,SW-620,> 100 µM (inactive)
same,GI50,T47D,53.3 µM (inactive)
same,GI50,TK-10,> 100 µM (inactive)
same,GI50,U-251,90.6 µM (inactive)
same,GI50,UACC-257,48.3 µM (inactive)
same,GI50,UACC-62,61.2 µM (inactive)
same,GI50,UO-31,> 100 µM (inactive)
